Legend:
[1] = Metabolic stability in rat liver microsomes; assay type: in vitro ADME
PDE1 F392A = PDE1 F392A (Homo sapiens, UniProt Q14123, F398A); assay: Inhibition of PDE1 mutant by 10a; assay type: biochemical
PDE1 Q421A = PDE1 Q421A (Homo sapiens, UniProt Q14123, Q427A); assay: Inhibition of PDE1 mutant by 10a; assay type: biochemical; details: Q421A vs wild type
PDE1 Y228A = PDE1 Y228A (Homo sapiens, UniProt Q14123, Y227A); assay: Inhibition of PDE1 mutant by 10a; assay type: biochemical
Sequence of PDE1 Y228A (Q14123 147-531 Y227A): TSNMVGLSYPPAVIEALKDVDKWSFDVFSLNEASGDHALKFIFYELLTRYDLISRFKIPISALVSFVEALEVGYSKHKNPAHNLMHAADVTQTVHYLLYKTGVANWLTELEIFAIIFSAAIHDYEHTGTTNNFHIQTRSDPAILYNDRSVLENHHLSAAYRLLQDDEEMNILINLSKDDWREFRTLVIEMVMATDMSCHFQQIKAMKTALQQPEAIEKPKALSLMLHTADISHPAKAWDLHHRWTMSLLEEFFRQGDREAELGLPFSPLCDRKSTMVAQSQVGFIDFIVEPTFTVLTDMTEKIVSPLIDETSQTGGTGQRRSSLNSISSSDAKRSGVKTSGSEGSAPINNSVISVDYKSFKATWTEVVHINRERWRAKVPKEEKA

Sequence of PDE1 F392A (Q14123 147-531 F398A): as the sequence (Q14123 147-531 Y227A) above, with A81Y, F252A counted along it
Sequence of PDE1 Q421A (Q14123 147-531 Q427A): as the sequence (Q14123 147-531 Y227A) above, with A81Y, Q281A counted along it

Q: With `O=C1O/C(=C\c2cc(F)ccc2OCCN2CC[C@@H](F)C2)c2cc(Cc3cccc(F)c3)[nH]c(=O)c21` [11c] as the molecule, how does the half-life [1] read?
A: 13.5 min

Q: For `Cc1cc2c(c(=O)[nH]1)C(=O)O/C2=C\c1cc(F)ccc1OC(C)C` [compound 10a], which IC50 (PDE1 F392A) is on record?
A: 231 nM

Q: And the “loss of binding affinity” value (PDE1 F392A; F392A vs wild type)?
A: 14 fold

Q: And the “loss of binding affinity” value (PDE1 Q421A)?
A: 8 fold

Q: And the IC50 (PDE1 Y228A)?
A: 43 nM

Q: What about the “loss of binding affinity” value (PDE1 Y228A; Y228A vs wild type) of the same molecule?
A: ~3 fold

Q: With `Cc1cc2c(c(=O)[nH]1)C(=O)O/C2=C\c1cc(F)ccc1OCCN1CCOCC1` [compound 11a] as the molecule, how does the half-life [1] read?
A: 8 min

Q: With `O=C1O/C(=C\c2cc(F)ccc2OCCN2CCOCC2)c2cc(Cc3cccc(F)c3)[nH]c(=O)c21` [compound 11b] as the molecule, how does the half-life [1] read?
A: 29.8 min

From publication PMC11725145 (Acta Pharmaceutica Sinica. B, 2024)
